# Data taken from patent publication US20160214963A1, “INHIBITORS OF BRUTON'S TYROSINE KINASE” (Beyond Oncology Pharmaceutical LLC, priority 2013, published 2016).
# Read-outs that look alike come from different tables or passages of the source.
# Tests used:
# [1] = test system: arthritis; conditions: mice; cited from earlier work
# [2] = test system: systemic lupus erythematosus (SLE); conditions: mouse model of SLE; cited from earlier work
# [3] = target: T1, CASK (Homo sapiens, UniProt O14936); conditions: 1 μM; cited from earlier work
# T1 construct: literature Ambit
# T1 sequence (O14936 1-926): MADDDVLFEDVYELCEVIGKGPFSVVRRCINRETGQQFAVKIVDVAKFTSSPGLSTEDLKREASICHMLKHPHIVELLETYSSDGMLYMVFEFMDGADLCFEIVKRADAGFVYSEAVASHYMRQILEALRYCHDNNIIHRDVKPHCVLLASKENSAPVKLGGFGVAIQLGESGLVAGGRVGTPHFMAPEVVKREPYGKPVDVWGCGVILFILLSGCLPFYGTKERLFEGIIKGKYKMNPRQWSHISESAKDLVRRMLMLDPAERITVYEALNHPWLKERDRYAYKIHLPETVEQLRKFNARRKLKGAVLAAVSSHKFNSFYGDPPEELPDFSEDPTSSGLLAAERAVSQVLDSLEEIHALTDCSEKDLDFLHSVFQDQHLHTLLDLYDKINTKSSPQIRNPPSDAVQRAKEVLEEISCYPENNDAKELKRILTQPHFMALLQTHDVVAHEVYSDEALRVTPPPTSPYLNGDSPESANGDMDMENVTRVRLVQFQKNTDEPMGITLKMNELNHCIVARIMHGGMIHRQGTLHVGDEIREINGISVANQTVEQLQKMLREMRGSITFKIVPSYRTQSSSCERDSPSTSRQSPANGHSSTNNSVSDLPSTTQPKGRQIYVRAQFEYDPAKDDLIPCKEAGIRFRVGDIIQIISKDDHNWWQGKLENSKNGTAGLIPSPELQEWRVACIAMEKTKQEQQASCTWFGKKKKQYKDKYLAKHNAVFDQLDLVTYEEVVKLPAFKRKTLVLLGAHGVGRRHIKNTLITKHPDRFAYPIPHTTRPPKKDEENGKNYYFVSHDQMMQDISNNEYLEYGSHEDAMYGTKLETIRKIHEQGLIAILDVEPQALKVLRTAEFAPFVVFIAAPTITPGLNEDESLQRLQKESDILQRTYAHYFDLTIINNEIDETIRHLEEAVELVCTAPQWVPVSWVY
# [4] = target: T2, MINK (Homo sapiens, UniProt Q8N4C8); conditions: cited from earlier work
# T2 construct: literature Ambit
# [5] = target: T3, NEK11 (Homo sapiens, UniProt Q8NG66); conditions: 1 μM; cited from earlier work
# T3 construct: literature Ambit
# T3 sequence (Q8NG66 1-645): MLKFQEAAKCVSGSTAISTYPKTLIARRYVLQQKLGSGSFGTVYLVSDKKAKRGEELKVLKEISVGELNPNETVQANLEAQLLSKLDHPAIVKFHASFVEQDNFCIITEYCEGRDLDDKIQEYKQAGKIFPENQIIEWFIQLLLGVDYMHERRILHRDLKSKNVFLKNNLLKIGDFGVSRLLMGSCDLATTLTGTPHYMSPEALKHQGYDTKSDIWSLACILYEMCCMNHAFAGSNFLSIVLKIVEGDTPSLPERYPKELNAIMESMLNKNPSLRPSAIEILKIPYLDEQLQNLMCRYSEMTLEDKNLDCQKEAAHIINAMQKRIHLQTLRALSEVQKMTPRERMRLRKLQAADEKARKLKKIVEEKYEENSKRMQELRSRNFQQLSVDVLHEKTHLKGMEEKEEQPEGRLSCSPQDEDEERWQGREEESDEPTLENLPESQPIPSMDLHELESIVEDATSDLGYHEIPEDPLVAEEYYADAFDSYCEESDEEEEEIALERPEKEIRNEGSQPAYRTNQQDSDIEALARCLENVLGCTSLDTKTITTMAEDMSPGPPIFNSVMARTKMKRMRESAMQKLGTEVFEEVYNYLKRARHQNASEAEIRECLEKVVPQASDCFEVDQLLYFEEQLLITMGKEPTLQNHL
# [6] = target: T4, PDGFRB (Homo sapiens, UniProt P09619); conditions: 1 μM; cited from earlier work
# T4 construct: literature Ambit
# [7] = target: T5, BMX (Homo sapiens, UniProt P51813); conditions: at Km for ATP; cited from earlier work
# T5 sequence (P51813 1-675): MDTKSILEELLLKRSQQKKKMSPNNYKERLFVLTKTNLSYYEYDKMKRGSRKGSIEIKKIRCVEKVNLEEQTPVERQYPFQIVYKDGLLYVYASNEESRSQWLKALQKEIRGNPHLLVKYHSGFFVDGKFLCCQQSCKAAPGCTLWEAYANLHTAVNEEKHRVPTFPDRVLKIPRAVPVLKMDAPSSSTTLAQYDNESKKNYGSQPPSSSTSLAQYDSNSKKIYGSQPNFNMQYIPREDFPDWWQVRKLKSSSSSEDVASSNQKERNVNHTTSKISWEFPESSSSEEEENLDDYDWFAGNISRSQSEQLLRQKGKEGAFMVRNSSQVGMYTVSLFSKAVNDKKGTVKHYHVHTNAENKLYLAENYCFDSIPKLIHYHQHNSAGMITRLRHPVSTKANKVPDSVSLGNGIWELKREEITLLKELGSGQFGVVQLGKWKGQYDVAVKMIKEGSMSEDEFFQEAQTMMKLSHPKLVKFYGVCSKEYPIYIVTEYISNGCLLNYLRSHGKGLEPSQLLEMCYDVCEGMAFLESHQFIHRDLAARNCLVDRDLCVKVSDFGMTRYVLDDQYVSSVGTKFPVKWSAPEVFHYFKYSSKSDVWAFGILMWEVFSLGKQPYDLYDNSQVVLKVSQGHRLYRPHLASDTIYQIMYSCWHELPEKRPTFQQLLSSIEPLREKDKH
# [8] = target: BTK (Homo sapiens, UniProt Q06187); assay: KINOMEscan competition binding assay, Kd
# Description: (§1) The assay is performed by combining three components: DNA-tagged kinase; immobilized ligand; and a test compound. The ability of the test compound to compete with the immobilized ligand is measured via quantitative PCR of the DNA tag. The kinase-tagged T7 phage strains were prepared in an E. coli host derived from the BL21 strain. E. coli were grown to log-phase and infected with T7 phage and incubated with shaking at 32° C. until lysis. The lysates were centrifuged and filtered to remove cell debris. The remaining kinases were produced in HEK-293 cells and subsequently tagged with DNA for qPCR detection. […] The liganded beads were blocked with excess biotin and washed with blocking buffer (SeaBlock (Pierce), 1% BSA, 0.05% Tween 20, 1 mM DTT) to remove unbound ligand and to reduce non-specific binding. […] All reactions were performed in polystyrene 96-well plates in a final volume of 0.135 ml. […] The kinase concentration in the eluates was measured by qPCR. An 11-point 3-fold serial dilution of each test compound was prepared in 100% DMSO at 100× final test concentration and subsequently diluted to 1× in the assay (final DMSO concentration=1%). […] Binding constants (Kds) were calculated with a standard dose-response curve using the Hill equation: Response=Background+(Signal−Background)/[1+(Kd^Hill Slope/Dose^Hill Slope)]. The Hill Slope was set to −1. […]
# [9] = target: JAK3 (Homo sapiens, UniProt P52333); assay: KINOMEscan competition binding assay, Kd
# Description: as §1
# [10] = target: T6, TEC (Homo sapiens, UniProt P42680); assay: KINOMEscan competition binding assay, Kd
# T6 sequence (P42680 1-631): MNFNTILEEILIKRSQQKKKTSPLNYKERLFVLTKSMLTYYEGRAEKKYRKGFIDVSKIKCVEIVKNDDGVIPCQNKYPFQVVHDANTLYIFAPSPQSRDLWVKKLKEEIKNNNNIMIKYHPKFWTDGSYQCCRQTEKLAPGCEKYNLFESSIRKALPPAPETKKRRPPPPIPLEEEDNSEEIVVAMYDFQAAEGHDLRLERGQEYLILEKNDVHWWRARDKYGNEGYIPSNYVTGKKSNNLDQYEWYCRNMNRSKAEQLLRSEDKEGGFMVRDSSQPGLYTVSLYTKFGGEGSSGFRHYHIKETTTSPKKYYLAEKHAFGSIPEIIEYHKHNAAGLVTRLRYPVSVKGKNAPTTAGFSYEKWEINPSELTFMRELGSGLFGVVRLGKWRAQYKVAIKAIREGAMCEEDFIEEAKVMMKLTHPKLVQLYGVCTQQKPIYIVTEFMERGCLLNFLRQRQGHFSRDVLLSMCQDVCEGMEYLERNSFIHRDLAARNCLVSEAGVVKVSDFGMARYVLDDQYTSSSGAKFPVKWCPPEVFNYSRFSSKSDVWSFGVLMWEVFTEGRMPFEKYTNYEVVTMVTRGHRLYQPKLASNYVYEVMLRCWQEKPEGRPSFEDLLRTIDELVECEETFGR
# Description: as §1
# [11] = target: T5, BMX; assay: KINOMEscan competition binding assay, Kd; set-up: DNA tag for qPCR (T7 phage display or DNA tag added after HEK-293 expression); host or cells: E. coli BL21-derived host (T7 phage) or HEK-293
# Description: The Hill Slope was set to −1.
# [12] = test system: CD69 expression in B cells; conditions: human whole blood; read-out: IC50 IgM-stimulated CD69 expression in B cells; cited from earlier work
# [13] = test system: TNFα release in monocytes; conditions: read-out: IC50 IgG-FcγR mediated TNFα release; cited from earlier work
# [14] = test system: histamine release in mast cells; conditions: read-out: IC50 IgE-Fce cross-linking induced histamine release; cited from earlier work
# [15] = test system: CD69 expression; conditions: oral 3, 30, 100 mg/kg, cited from earlier work
# [16] = test system: arthritis; conditions: 100 mg/kg oral, preventive mode; cited from earlier work
# [17] = test system: arthritis; conditions: cited from earlier work
# [18] = test system: hypersensitive immune responses; conditions: rPCA, 30 mg/kg; cited from earlier work
# [19] = test system: adjuvant-induced arthritis; conditions: rat AIA, combination; cited from earlier work
# BTK, sequence (Q06187 whole entry): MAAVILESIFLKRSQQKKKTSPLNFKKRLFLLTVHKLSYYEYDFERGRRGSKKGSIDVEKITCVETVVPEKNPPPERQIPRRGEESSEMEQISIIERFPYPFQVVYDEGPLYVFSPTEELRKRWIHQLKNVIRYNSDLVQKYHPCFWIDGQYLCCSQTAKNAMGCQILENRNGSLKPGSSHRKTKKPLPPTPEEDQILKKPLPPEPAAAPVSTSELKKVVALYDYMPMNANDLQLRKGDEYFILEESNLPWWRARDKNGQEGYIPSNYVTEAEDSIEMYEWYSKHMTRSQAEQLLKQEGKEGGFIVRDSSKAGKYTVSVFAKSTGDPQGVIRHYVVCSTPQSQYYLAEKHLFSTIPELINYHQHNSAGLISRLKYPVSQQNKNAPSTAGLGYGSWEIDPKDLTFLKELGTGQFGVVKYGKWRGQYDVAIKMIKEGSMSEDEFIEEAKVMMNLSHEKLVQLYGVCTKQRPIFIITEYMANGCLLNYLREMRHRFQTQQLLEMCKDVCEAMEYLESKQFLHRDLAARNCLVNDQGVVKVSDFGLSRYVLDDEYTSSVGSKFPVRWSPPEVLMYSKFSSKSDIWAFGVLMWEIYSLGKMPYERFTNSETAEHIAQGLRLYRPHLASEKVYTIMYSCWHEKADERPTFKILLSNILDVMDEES
# T2 sequence (Q8N4C8 whole entry): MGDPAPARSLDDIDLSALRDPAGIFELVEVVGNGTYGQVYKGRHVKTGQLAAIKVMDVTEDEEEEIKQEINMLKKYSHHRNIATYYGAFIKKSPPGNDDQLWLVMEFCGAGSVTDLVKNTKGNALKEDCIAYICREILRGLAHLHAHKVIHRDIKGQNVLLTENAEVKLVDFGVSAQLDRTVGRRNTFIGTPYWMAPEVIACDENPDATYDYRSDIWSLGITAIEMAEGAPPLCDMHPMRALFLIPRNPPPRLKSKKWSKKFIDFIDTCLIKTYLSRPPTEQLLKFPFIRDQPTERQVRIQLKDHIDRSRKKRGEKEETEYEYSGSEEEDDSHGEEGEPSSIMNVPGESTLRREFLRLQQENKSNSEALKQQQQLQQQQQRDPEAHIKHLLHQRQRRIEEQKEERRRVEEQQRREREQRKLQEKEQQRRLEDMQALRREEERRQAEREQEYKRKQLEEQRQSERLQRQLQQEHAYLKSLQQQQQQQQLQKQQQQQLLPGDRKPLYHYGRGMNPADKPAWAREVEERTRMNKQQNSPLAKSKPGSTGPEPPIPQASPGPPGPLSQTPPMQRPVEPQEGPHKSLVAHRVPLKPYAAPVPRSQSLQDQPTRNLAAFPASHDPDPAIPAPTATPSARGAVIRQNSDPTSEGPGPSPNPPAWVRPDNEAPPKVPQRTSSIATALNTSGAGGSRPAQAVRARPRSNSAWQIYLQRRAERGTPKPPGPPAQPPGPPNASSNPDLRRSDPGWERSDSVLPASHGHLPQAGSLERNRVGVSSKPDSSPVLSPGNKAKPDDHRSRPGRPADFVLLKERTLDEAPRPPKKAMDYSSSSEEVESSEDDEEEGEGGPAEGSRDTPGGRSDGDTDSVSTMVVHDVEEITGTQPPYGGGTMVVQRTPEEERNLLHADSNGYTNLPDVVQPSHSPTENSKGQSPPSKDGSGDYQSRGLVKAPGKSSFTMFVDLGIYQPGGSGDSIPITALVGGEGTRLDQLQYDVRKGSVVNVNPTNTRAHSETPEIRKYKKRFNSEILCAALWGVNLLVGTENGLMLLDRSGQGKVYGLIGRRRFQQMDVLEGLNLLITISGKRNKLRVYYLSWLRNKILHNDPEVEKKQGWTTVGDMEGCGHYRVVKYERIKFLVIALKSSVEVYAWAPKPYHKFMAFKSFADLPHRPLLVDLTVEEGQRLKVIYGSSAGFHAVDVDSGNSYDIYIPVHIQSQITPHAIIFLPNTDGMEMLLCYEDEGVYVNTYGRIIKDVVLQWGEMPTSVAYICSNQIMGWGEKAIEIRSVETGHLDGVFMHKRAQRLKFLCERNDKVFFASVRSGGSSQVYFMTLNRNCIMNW
# JAK3, sequence (P52333 814-1124 limits assumed): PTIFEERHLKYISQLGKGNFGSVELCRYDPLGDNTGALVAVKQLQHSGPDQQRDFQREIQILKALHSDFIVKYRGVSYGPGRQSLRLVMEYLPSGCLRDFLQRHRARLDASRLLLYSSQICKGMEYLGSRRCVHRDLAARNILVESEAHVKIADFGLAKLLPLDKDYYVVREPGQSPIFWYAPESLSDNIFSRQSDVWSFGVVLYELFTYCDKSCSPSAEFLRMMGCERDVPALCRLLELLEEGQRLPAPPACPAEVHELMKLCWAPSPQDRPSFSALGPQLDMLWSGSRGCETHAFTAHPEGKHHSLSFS
# T4 sequence (P09619 33-1106): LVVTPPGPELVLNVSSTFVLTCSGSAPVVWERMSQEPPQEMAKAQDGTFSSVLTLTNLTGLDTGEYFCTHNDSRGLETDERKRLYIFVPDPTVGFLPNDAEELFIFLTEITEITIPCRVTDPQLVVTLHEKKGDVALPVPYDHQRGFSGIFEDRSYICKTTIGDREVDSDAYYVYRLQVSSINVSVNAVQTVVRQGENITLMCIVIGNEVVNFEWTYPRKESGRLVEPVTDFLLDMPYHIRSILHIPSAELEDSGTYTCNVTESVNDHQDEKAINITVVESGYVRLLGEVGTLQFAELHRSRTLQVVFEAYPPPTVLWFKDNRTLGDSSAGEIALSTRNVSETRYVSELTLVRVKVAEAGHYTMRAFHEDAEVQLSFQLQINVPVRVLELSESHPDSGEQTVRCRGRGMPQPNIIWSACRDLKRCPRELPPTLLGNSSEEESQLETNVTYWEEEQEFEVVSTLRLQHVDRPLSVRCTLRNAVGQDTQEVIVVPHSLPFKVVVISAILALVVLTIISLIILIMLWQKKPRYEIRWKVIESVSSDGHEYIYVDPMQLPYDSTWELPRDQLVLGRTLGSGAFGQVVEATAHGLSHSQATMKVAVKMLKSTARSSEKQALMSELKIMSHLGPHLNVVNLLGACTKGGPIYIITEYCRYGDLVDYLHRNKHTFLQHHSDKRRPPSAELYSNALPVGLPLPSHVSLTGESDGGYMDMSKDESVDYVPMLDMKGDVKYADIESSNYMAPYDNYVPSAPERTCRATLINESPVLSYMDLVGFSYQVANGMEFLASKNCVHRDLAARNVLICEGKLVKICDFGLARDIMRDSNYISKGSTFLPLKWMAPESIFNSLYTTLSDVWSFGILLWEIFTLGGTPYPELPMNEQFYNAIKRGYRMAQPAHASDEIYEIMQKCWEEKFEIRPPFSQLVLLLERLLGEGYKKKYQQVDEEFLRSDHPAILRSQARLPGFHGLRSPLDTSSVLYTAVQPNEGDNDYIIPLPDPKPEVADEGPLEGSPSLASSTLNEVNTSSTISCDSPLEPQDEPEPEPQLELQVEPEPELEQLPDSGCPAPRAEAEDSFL
smiles,measurement,setting,value
C=CC(=O)N1CCCC(n2nc(-c3ccc(Oc4ccccc4)cc3)c3c(N)ncnc32)C1 (stereo not drawn) [PCI-32765],course of arthritis,[1],can reverse
same,level of circulating autoantibodies,[1],reduces
same,auto-antibody production and development of kidney disease,[2],inhibited
Cc1c(NC(=O)c2ccc(C(C)(C)C)cc2)cccc1-c1cn(C)c(=O)c(Nc2ccc(C(=O)N3CCOCC3)cc2)n1 [CGI-1746],"displacement of control ligand, CASK",[3],69%
same,"displacement of control ligand, MINK",[4]; 1 μM,77%
same,Kd,[4]; read-out: Kd MINK1,40000 nM
same,"displacement of control ligand, NEK11",[5],59%
same,"displacement of control ligand, PDGFRB",[6],59%
same,IC50,[7],1870 nM
C=CC(=O)Nc1cccc(Nc2nc(-c3cccc(-n4ncc5cc(C(C)(C)C)cc(F)c5c4=O)c3CO)cn(C)c2=O)c1 [CY-130526],Kd,[8],0.86 nM
same,"selectivity for BTK over TEC, BMX",[8]; kinases inhibited the most next to BTK,> 1000 fold
same,Kd,[9],14000 nM
same,Kd,[10],2400 nM
same,Kd,[11],1300 nM
CN1CCN(c2ccc(Nc3cc(-c4cccc(-n5ccc6cc(C7CC7)cc(F)c6c5=O)c4CO)cn(C)c3=O)nc2)CC1 [RN-486],IC50,[12],17 nM
same,IC50,[13],4 nM
same,IC50,[14],29.2 nM
same,inhibition of ex vivo anti-IgD stimulated CD69 expression,"[15]; 3 and 6 h postdose, all doses",completely inhibited
same,inhibition of ex vivo anti-IgD stimulated CD69 expression,[15]; 24 h postdose,50-80%
same,inhibition of arthritis as measured by clinical scores,[16],complete inhibition
same,disease progression,[17]; mCIA and mCAIA models,dose-dependently inhibits
same,progression of disease,"[17]; therapeutic mode, 30 mg/kg",did not show progression of disease
same,effect in blocking hypersensitive immune responses,[18],91%
same,effect with low dose methotrexate,[19],additive effects
